Laboratory results taken from ChEMBL document CHEMBL1137903 (Bioorg Med Chem Lett, 2004).

Assays:
[1] = target: T1, Melatonin receptor type 1B (Homo sapiens, UniProt P49286); experiment: Inhibition of 2-[125I]iodomelatonin binding to membrane preparations of NIH3T3 cells stably expressing human Melatonin receptor type 1B; format: cell membranes
T1 sequence (P49286 whole entry): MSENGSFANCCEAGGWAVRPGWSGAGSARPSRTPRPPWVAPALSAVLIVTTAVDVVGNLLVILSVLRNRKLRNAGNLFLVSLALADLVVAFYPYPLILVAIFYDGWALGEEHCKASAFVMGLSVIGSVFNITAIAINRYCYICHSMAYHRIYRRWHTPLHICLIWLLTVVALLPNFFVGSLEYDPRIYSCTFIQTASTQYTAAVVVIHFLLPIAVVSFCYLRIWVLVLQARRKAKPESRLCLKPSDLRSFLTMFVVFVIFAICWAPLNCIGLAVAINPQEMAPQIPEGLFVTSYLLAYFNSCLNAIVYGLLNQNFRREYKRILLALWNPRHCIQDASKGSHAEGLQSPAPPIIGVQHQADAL

[2] = target: T2, Melatonin receptor type 1A (Homo sapiens, UniProt P48039); experiment: Inhibition of 2-[125I]iodomelatonin binding to membrane preparations of NIH3T3 cells stably expressing human Melatonin receptor type 1A; format: cell membranes
T2 sequence (P48039 whole entry): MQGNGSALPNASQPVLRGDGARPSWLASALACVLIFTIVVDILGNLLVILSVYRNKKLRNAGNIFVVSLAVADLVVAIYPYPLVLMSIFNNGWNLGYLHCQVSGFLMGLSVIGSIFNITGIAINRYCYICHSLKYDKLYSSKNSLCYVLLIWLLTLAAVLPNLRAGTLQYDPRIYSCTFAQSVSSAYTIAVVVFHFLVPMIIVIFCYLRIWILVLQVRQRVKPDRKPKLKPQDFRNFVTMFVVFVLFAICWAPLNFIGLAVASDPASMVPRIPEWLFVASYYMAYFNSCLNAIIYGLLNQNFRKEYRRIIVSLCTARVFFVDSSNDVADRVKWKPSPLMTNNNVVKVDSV

[3] = Bioavailability in rat (dose 1 mg/kg p.o.); format: ADME, organism-based; details: in vivo, po
[4] = target: T1, Melatonin receptor type 1B; experiment: Agonist activity towards human Melatonin receptor type 1B was determined by its ability to inhibit forskolin stimulated cAMP accumulation; format: functional
[5] = target: T2, Melatonin receptor type 1A; experiment: Agonist activity towards human Melatonin receptor type 1A was determined by its ability to inhibit forskolin stimulated cAMP accumulation; format: functional
[6] = Half-life in rats after the administration of 1 mg/kg i.v. dose; format: ADME, organism-based; parameters: dose 1 mg/kg, route intravenous; details: rat, in vivo, iv
[7] = Clearance in rats after the administration of 1 mg/kg i.v. dose; format: ADME, organism-based; parameters: dose 1 mg/kg, route intravenous; details: rat, in vivo, iv
[8] = target: T2, Melatonin receptor type 1A; experiment: Intrinsic activity towards human Melatonin receptor type 1A relative to melatonin
[9] = Volume of distribution in rats after the administration of 1 mg/kg i.v. dose; format: ADME, organism-based; parameters: dose 1 mg/kg, route intravenous; details: rat, in vivo, iv

CCNC(=O)N[C@H]1CCN(c2cccc3oc(CCCCc4ccccc4)cc23)C1
Ki [1]: 98 nM | Ki [2]: 39 nM

O=C(N[C@H]1CCN(c2cccc3oc(CCCCc4ccccc4)cc23)C1)C1CC1
Ki [1]: 152 nM | Ki [2]: 42 nM

CCCC(=O)N[C@H]1CCN(c2cccc3oc(CCCCc4ccccc4)cc23)C1
Ki [1]: 7.2 nM | Ki [2]: 11 nM

CCNC(=O)NC[C@@H]1C[C@H]1c1cccc2oc(CCCCc3ccccc3)cc12
Ki [1]: 90 nM | Ki [2]: 33 nM

COc1ccc2[nH]cc(CCNC(C)=O)c2c1 [MELATONIN]
bioavailability [3]: 24%

CCCC(=O)NCCCc1cccc2oc(CCCCc3ccccc3)cc12
Ki [1]: 82 nM | Ki [2]: 16 nM

O=C(NCCCc1cccc2oc(CCCCc3ccccc3)cc12)C1CC1
Ki [1]: 95 nM | Ki [2]: 6 nM

CCC(=O)NC[C@@H]1CC1c1cccc2oc(CCCCc3ccccc3)cc12 (some centres undefined)
Ki [1]: 2.8 nM | Ki [2]: 2.1 nM

CC(=O)NC[C@@H]1CC1c1cccc2oc(CCCCc3ccccc3)cc12 (some centres undefined)
EC50 [4]: 21 nM | EC50 [5]: 0.6 nM | bioavailability [3]: 90% | Ki [1]: 10 nM | Ki [2]: 2.6 nM | half-life [6]: 3.8 h | clearance [7]: 27.5 mL/min/kg | Activity [8]: 0.97 | Vd [9]: 0.557 L/kg

CCCC(=O)NC[C@@H]1CC1c1cccc2oc(CCCCc3ccccc3)cc12 (some centres undefined)
Ki [1]: 10 nM | Ki [2]: 10 nM

CC(=O)N[C@H]1CCN(c2cccc3oc(CCCCc4ccccc4)cc23)C1
Ki [1]: 14 nM | Ki [2]: 22 nM

CCC(=O)N[C@H]1CCN(c2cccc3oc(CCCCc4ccccc4)cc23)C1
Ki [1]: 6 nM | Ki [2]: 2.4 nM

CCNC(=O)NCCCc1cccc2oc(CCCCc3ccccc3)cc12
Ki [1]: 52 nM | Ki [2]: 21 nM

CCC(=O)NCCCc1cccc2oc(CCCCc3ccccc3)cc12
Ki [1]: 60 nM | Ki [2]: 7.5 nM

CC(C)C(=O)N[C@H]1CCN(c2cccc3oc(CCCCc4ccccc4)cc23)C1
Ki [1]: 162 nM | Ki [2]: 105 nM

O=C(NC[C@@H]1CC1c1cccc2oc(CCCCc3ccccc3)cc12)C1CC1 (some centres undefined)
Ki [1]: 33 nM | Ki [2]: 16 nM

CC(C)C(=O)NC[C@@H]1CC1c1cccc2oc(CCCCc3ccccc3)cc12 (some centres undefined)
Ki [1]: 54 nM | Ki [2]: 23 nM

CC(=O)NCCCc1cccc2oc(CCCCc3ccccc3)cc12
Ki [1]: 127 nM | Ki [2]: 19 nM

CC(C)C(=O)NCCCc1cccc2oc(CCCCc3ccccc3)cc12
Ki [1]: 83 nM | Ki [2]: 3.7 nM
